Test results reported in article PMC11822212, “High-throughput screening identifies Aurora kinase B as a critical therapeutic target for Merkel cell carcinoma” (Nature Communications, 2025).
Like-named read-outs stand apart in the source and are kept apart here.

Assays:
Experiment in all cases: qHTS cell viability (CellTiter-Glo, 72 h; primary and follow-up small molecule screen)
Assay type in all cases: cell-based, human
UISO cells (VN-MCC) = test system: UISO cells (VN-MCC)
MKL-1 cells (VP-MCC) = test system: MKL-1 cells (VP-MCC)
MKL-2 cells (VP-MCC) = test system: MKL-2 cells (VP-MCC)
MCC26 cells (VN-MCC) = test system: MCC26 cells (VN-MCC)
MCC13 cells (VN-MCC) = test system: MCC13 cells (VN-MCC)
WAGA cells (VP-MCC) = test system: WAGA cells (VP-MCC)

SMILES	Area under the dose-response curve (AUC) UISO Replicate 1 (UISO cells (VN-MCC))	Area under the dose-response curve (AUC) UISO Replicate 2 (UISO cells (VN-MCC))	Area under the dose-response curve (AUC) UISO Replicate 3 (UISO cells (VN-MCC))	Area under the dose-response curve (AUC) MKL-1 Replicate 1 (MKL-1 cells (VP-MCC))	Area under the dose-response curve (AUC) MKL-1 Replicate 2 (MKL-1 cells (VP-MCC))	Area under the dose-response curve (AUC) MKL-1 Replicate 3 (MKL-1 cells (VP-MCC))	Area under the dose-response curve (AUC) MKL-2 Replicate 1 (MKL-2 cells (VP-MCC))	Area under the dose-response curve (AUC) MKL-2 Replicate 2 (MKL-2 cells (VP-MCC))	Area under the dose-response curve (AUC) MKL-2 Replicate 3 (MKL-2 cells (VP-MCC))	Area under the dose-response curve (AUC) MCC26 Replicate 1 (MCC26 cells (VN-MCC))	Area under the dose-response curve (AUC) MCC26 Replicate 2 (MCC26 cells (VN-MCC))	Area under the dose-response curve (AUC) MCC26 Replicate 3 (MCC26 cells (VN-MCC))	Area under the dose-response curve (AUC) MCC13 Replicate 1 (MCC13 cells (VN-MCC))	Area under the dose-response curve (AUC) MCC13 Replicate 2 (MCC13 cells (VN-MCC))	Area under the dose-response curve (AUC) MCC13 Replicate 3 (MCC13 cells (VN-MCC))	Area under the dose-response curve (AUC) WAGA Replicate 1 (WAGA cells (VP-MCC))	Area under the dose-response curve (AUC) WAGA Replicate 2 (WAGA cells (VP-MCC))	Area under the dose-response curve (AUC) WAGA Replicate 3 (WAGA cells (VP-MCC))	further results
O=C(/C=C/c1ccc(/C=C/C(=O)Nc2ccc(C3=NCCN3)cc2)cc1)Nc1ccc(C2=NCCN2)cc1 [GW 4869]	438.7	454.7	432.9	478.1	455.5	501.6	446.9	473.7	455.4	426.9	422.1	445.3	485.4	474.1	483.0	473.9	513.7	487.4	
COc1ccc(C(=O)CC(=O)c2ccc(C(C)(C)C)cc2)cc1 [Avobenzone]																			Area under the dose-response curve (AUC) UISO Replicate 1 (UISO cells (VN-MCC); follow-up screen, UISO, replicate 1): 448.1; Area under the dose-response curve (AUC) UISO Replicate 2 (UISO cells (VN-MCC); follow-up screen, UISO, replicate 2): 466.1; Area under the dose-response curve (AUC) UISO Replicate 3 (UISO cells (VN-MCC); follow-up screen, UISO, replicate 3): 426.5; Area under the dose-response curve (AUC) MKL-1 Replicate 1 (MKL-1 cells (VP-MCC); follow-up screen, MKL-1, replicate 1): 452.4; Area under the dose-response curve (AUC) MKL-1 Replicate 2 (MKL-1 cells (VP-MCC); follow-up screen, MKL-1, replicate 2): 457.3; Area under the dose-response curve (AUC) MKL-1 Replicate 3 (MKL-1 cells (VP-MCC); follow-up screen, MKL-1, replicate 3): 467.2; Area under the dose-response curve (AUC) MKL-2 Replicate 1 (MKL-2 cells (VP-MCC); follow-up screen, MKL-2, replicate 1): 491.6; Area under the dose-response curve (AUC) MKL-2 Replicate 2 (MKL-2 cells (VP-MCC); follow-up screen, MKL-2, replicate 2): 475.6; Area under the dose-response curve (AUC) MKL-2 Replicate 3 (MKL-2 cells (VP-MCC); follow-up screen, MKL-2, replicate 3): 463.7; Area under the dose-response curve (AUC) MCC26 Replicate 1 (MCC26 cells (VN-MCC); follow-up screen, MCC26, replicate 1): 418.2; Area under the dose-response curve (AUC) MCC26 Replicate 2 (MCC26 cells (VN-MCC); follow-up screen, MCC26, replicate 2): 424.5; Area under the dose-response curve (AUC) MCC26 Replicate 3 (MCC26 cells (VN-MCC); follow-up screen, MCC26, replicate 3): 411.6; Area under the dose-response curve (AUC) MCC13 Replicate 1 (MCC13 cells (VN-MCC); follow-up screen, MCC13, replicate 1): 464.5; Area under the dose-response curve (AUC) MCC13 Replicate 2 (MCC13 cells (VN-MCC); follow-up screen, MCC13, replicate 2): 464.7; Area under the dose-response curve (AUC) MCC13 Replicate 3 (MCC13 cells (VN-MCC); follow-up screen, MCC13, replicate 3): 487.0; Area under the dose-response curve (AUC) WAGA Replicate 1 (WAGA cells (VP-MCC); follow-up screen, WAGA, replicate 1): 495.5; Area under the dose-response curve (AUC) WAGA Replicate 2 (WAGA cells (VP-MCC); follow-up screen, WAGA, replicate 2): 492.2; Area under the dose-response curve (AUC) WAGA Replicate 3 (WAGA cells (VP-MCC); follow-up screen, WAGA, replicate 3): 489.4
O[C@H]1[C@H]2[C@H](O)CCCN2C[C@H]1O [Swainsonine]	446.0	458.3	417.9	483.5	459.4	455.2	462.0	456.2	445.8	425.6	420.4	449.5	474.5	467.6	453.7	517.4	504.3	463.6	
CC[n+]1c(-c2ccccc2)c2cc(N)ccc2c2ccc(N)cc21 [Ethidium bromide]	333.5	324.2	301.4	280.1	244.2	288.2	300.3	311.5	284.3	428.7	414.7	412.7	459.3	449.7	444.5	318.2	323.3	317.1	
